Compound in the test “XMD8-85 + Navitoclax”: CN1CCN(CC1)C2=CC(=C(C=C2)NC3=NC=C4C(=N3)N(C5=CC=CC=C5C(=O)N4C)C)OC [XMD8-85] + CC1(C)CCC(c2ccc(Cl)cc2)=C(CN2CCN(c3ccc(C(=O)NS(=O)(=O)c4ccc(N[C@H](CCN5CCOCC5)CSc5ccccc5)c(S(=O)(=O)C(F)(F)F)c4)cc3)CC2)C1 [Navitoclax] (partner 0.5 µM)
The experiment in a line: relative viability (nuclei count vs DMSO), 5 days (fraction); higher = more cells survive. An outline of the steps:
(§1)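 Dosing by pin tool came one day after lung cancer cell lines were seeded in 1536-well plates, using either one drug or a fixed anchor-drug dose plus five library-drug doses (not always all listed) in √10 steps. After 5 days, nuclei were counted on 4× images. Relative viability is treated-well nuclei count divided by vehicle-well nuclei count, and values are medians of duplicate plates.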

Compound in the test “4EGI-1 + Foretinib”: O=C(O)C(Cc1ccccc1[N+](=O)[O-])=NNc1nc(-c2ccc(Cl)c(Cl)c2)cs1 (mixture of isomers) [4EGI-1] + COc1cc2c(Oc3ccc(NC(=O)C4(C(=O)Nc5ccc(F)cc5)CC4)cc3F)ccnc2cc1OCCCN1CCOCC1 [Foretinib] (partner 0.25 µM)
The description is as above. An outline of the steps: as §1

As to NCI-H520, the relative viability was 1.2 with XMD8-85 + Navitoclax (first compound 0.08 µM); 1.19 with XMD8-85 + Navitoclax (first compound 0.253 µM); 1.05 with XMD8-85 + Navitoclax (first compound 0.8 µM); 1.06 with XMD8-85 + Navitoclax (first compound 2.53 µM); 0.829 with XMD8-85 + Navitoclax (first compound 8 µM); 0.89 in the test with 4EGI-1 + Foretinib (first compound 0.5 µM). For the same cell line, the relative viability with 4EGI-1 + Foretinib (first compound 1.581 µM) came to 0.812; with 4EGI-1 + Foretinib (first compound 5 µM), 0.937; in the test with 4EGI-1 + Foretinib (first compound 15.81 µM) it was 0.875; with 4EGI-1 + Foretinib (first compound 50 µM), 0.638.
As for NCI-H647, the relative viability was found to be 1.35 with XMD8-85 + Navitoclax (first compound 0.08 µM); 1.19 with XMD8-85 + Navitoclax (first compound 0.253 µM); 1.27 with XMD8-85 + Navitoclax (first compound 0.8 µM); 1.14 with XMD8-85 + Navitoclax (first compound 2.53 µM); 0.556 in the test with XMD8-85 + Navitoclax (first compound 8 µM); 1.44 in the test with 4EGI-1 + Foretinib (first compound 0.5 µM). The relative viability with 4EGI-1 + Foretinib (first compound 5 µM) came out at 1.18; in the test with 4EGI-1 + Foretinib (first compound 15.81 µM), 1.24; with 4EGI-1 + Foretinib (first compound 50 µM), 0.66.
NCI-H1944: the relative viability with XMD8-85 + Navitoclax (first compound 0.08 µM) turned out to be 1.13; with XMD8-85 + Navitoclax (first compound 0.253 µM) it was 1.1; with XMD8-85 + Navitoclax (first compound 0.8 µM), 1.18; with XMD8-85 + Navitoclax (first compound 2.53 µM), 1.16; with XMD8-85 + Navitoclax (first compound 8 µM), 1.12; with 4EGI-1 + Foretinib (first compound 0.5 µM), 0.894. In addition, the relative viability with 4EGI-1 + Foretinib (first compound 5 µM) was 0.974; in the test with 4EGI-1 + Foretinib (first compound 15.81 µM), 0.782; in the test with 4EGI-1 + Foretinib (first compound 50 µM), 0.655.
For the cell line LU99A, the relative viability with XMD8-85 + Navitoclax (first compound 0.08 µM) amounted to 0.857; with XMD8-85 + Navitoclax (first compound 0.253 µM) it was 0.689; with XMD8-85 + Navitoclax (first compound 0.8 µM), 0.888; with XMD8-85 + Navitoclax (first compound 2.53 µM) it was 0.892; in the test with XMD8-85 + Navitoclax (first compound 8 µM), 0.44; in the test with 4EGI-1 + Foretinib (first compound 0.5 µM), 0.817. Besides, the relative viability with 4EGI-1 + Foretinib (first compound 1.581 µM) was determined as 0.605; with 4EGI-1 + Foretinib (first compound 5 µM) it was 0.856; with 4EGI-1 + Foretinib (first compound 15.81 µM), 0.616; with 4EGI-1 + Foretinib (first compound 50 µM), 0.551.
Turning to SW 1573, the relative viability with XMD8-85 + Navitoclax (first compound 0.08 µM) came to 1.13; in the test with XMD8-85 + Navitoclax (first compound 0.253 µM), 1.02; in the test with XMD8-85 + Navitoclax (first compound 0.8 µM), 0.896; with XMD8-85 + Navitoclax (first compound 2.53 µM) it was 0.801; with XMD8-85 + Navitoclax (first compound 8 µM) it was 0.545; with 4EGI-1 + Foretinib (first compound 0.5 µM) it was 1.13. The relative viability with 4EGI-1 + Foretinib (first compound 1.581 µM) worked out at 0.954; with 4EGI-1 + Foretinib (first compound 5 µM) it was 1.13; in the test with 4EGI-1 + Foretinib (first compound 15.81 µM), 0.878; with 4EGI-1 + Foretinib (first compound 50 µM) it was 0.52.
Consider ChaGo-K-1, for which the relative viability with XMD8-85 + Navitoclax (first compound 0.08 µM) was determined as 0.788; in the test with XMD8-85 + Navitoclax (first compound 0.253 µM), 0.983; with XMD8-85 + Navitoclax (first compound 0.8 µM), 1.02; with XMD8-85 + Navitoclax (first compound 2.53 µM), 1.13; with XMD8-85 + Navitoclax (first compound 8 µM) it was 0.421; with 4EGI-1 + Foretinib (first compound 0.5 µM) it was 0.942. Moreover, the relative viability came out at 0.935 with 4EGI-1 + Foretinib (first compound 1.581 µM), 0.816 in the test with 4EGI-1 + Foretinib (first compound 5 µM), 0.975 in the test with 4EGI-1 + Foretinib (first compound 15.81 µM) and 0.799 with 4EGI-1 + Foretinib (first compound 50 µM).
For the cell line HARA, the relative viability came out at 1.17 with XMD8-85 + Navitoclax (first compound 0.08 µM); 1.15 with XMD8-85 + Navitoclax (first compound 0.253 µM); 1.13 with XMD8-85 + Navitoclax (first compound 0.8 µM); 1 with XMD8-85 + Navitoclax (first compound 2.53 µM); 0.443 with XMD8-85 + Navitoclax (first compound 8 µM); 0.979 with 4EGI-1 + Foretinib (first compound 0.5 µM). Besides, the relative viability with 4EGI-1 + Foretinib (first compound 1.581 µM) is 0.806; in the test with 4EGI-1 + Foretinib (first compound 5 µM), 0.965; in the test with 4EGI-1 + Foretinib (first compound 15.81 µM), 0.76; in the test with 4EGI-1 + Foretinib (first compound 50 µM), 0.175.

The values are drawn from the supplement of paper PMC10307832.
